Experimental data published in patent US20110281747A1, “BIOMARKERS FOR PREDICTING RAPID RESPONSE TO HCV TREATMENT” (ROCHE MOLECULAR SYSTEMS, INC., priority 2009, published 2011).

Columns and labels:
[1] = Phase II clinical trial of RO4588161: premature withdrawal for safety reasons; type: in vivo, human
Source text: This was a phase 2A, multi-center, randomized, double-blinded (RO4588161 and ribavirin were double-blinded and Pegasys was open labeled), active-controlled, with a parallel-group study which is ongoing. A screening period (time from the first screening assessment to the first administration of test drug) of 35 days preceded the treatment portion of the trial (FIG. 1). The HCV genotype and HCV RNA titer of each patient was confirmed during the screening period and only treatment-naïve patients with HCV genotype-1 and HCV RNA titer ≧50,000 IU/mL were eligible for enrollment.
One hundred and seven male and female patients between 18 and 66 years of age were enrolled into the study. Patients were randomized into four treatment groups: • Group A/Dual 1500 [RO4588161 1500 mg oral, twice daily+Pegasys 180 μg subcutaneous, once weekly] for 4 weeks—21 patients, • Group B/Dual 3000 [R04588161 3000 mg oral, twice daily+Pegasys 180 μg subcutaneous, once weekly] for 4 weeks—34 patients, • Group C/Triple 1500 [R04588161 1500 mg oral, twice daily+Pegasys 180 μg subcutaneous, once weekly+ribavirin 1000 mg (<75 kg) or 1200 mg (≧75 kg) oral daily] for 4 weeks—31 patients or • Group D/standard of care (SOC) [Pegasys 180 μg subcutaneous, once weekly+ribavirin 1000 mg (<75 kg) or 1200 mg (≧75 kg) oral daily] for 4 weeks—21 patients […]

[2] = in vivo; cited from earlier work
[3] = test system: HCV; conditions: monotherapy; cited from earlier work

Compound | patients who prematurely withdrew for safety reasons from treatment ([1]; among the 104 evaluable patients) | patients with hemolytic anemia requiring dose reduction or discontinuation of ribavirin therapy [2] | effect on serum levels of HCV-RNA [3] | patients whose serum amino transferase levels are reduced to normal [3] | patients who prematurely withdrew for safety reasons from treatment ([1]; both, human, in vivo, 4 weeks)
CC(C)C(=O)OC[C@@]1(N=[N+]=[N-])O[C@@H](n2ccc(N)nc2=O)[C@H](OC(=O)C(C)C)[C@@H]1OC(=O)C(C)C [RO4588161, Isobutyric acid (2R,3S,4R,5R)-5-(4-amino-2-oxo-2H-pyrimidin-1-yl)-2-azido-3,4-bis-isobutyryloxy-tetrahydro-furan-2-ylmethyl ester] | 43 patients |  |  |  | 
NC(=O)c1ncn([C@@H]2O[C@H](CO)[C@@H](O)[C@H]2O)n1 [ribavirin, 1-((2R,3R,4S,5R)-3,4-Dihydroxy-5-hydroxymethyl-tetrahydro-furan-2-yl)-1H-[1,2,4]triazole-3-carboxylic acid amide] |  | 10 to 20% | does not lower serum levels of HCV-RNA | 40% | 5 patients
